This note sets out measurements from patent US20220218725A1, “METHODS AND MATERIALS FOR TREATING CANCER” (Mayo Foundation for Medical Education and Research, priority 2019, published 2022).

Common to all, as to type: cell-based
One series deals with H460 cells. Description: Cell viability, Annexin V/PI assay. The following applies: H460 (Non-small cell lung cancer); 48 hours; KPT-330 0.1-1.0 μM, CS 1-3 mM, single agent or combination. Here is the method: (§1) Cell lines were purchased from the cell line repositories ATCC (Manassas, Va.) or DSMZ (Braunschweig, Germany). These included MCL cell lines: JeKo-1, Mino; TCL cell lines: Karpas-299, SR-786; DLBCL cell lines: OCI-Ly1 (LY-1), OCI-Ly3 (LY-3), OCI-Ly19 (LY-19), SU-DHL-6 (DHL-6); MM cell lines: RPMI, U266, OPM2, Xgl, KMS2; ALL cell lines: CRL-1783; non-small cell lung cancer: NCI-H460, A549, HCC827; small cell lung cancer: H1048; sarcoma: Fuji, SW872. Cell lines were cultured according to instruction.
(§2) KPT-330 purchased from Selleckchem (cat no: S7252) was dissolved in DMSO while CS (Santa Cruz, Calif.S 2016-36-6), sodium salicylate (Sigma-Aldrich, cat no: S3007), acetyl salicylate (Sigma-Aldrich, cat no: CAS 50-78-2) was diluted in PBS. Ketorolac (Sigma-Aldrich, cat no: 1356665), Bortezomib (Selleckchem, cat no: S1013), gemcitabine (Sigma-Aldrich, cat no: G6423), Leptomycin-B (Sigma-Aldrich, cat no: L2913-2X) and KPT-185 (Selleckchem, cat no: S7125) were dissolved in DMSO. The concentration range of KPT-330 was 0.05-1.0 μM while CS was 1-3 mM were used for ex vivo treatment and incubation time ranged from 24 hours to 72 hours. For the PARP inhibitor assay, olaparib 10 μM (SelleckChem, cat no: AZD2281 Ku-0059436) was used.
(§3) The viability assessment for cell lines and primary patients samples were conducted with the Annexin V/PI method.

The test system of another series is HCC827 cells. Description: Cell viability, Annexin V/PI assay. As to conditions: HCC827 (Non-small cell lung cancer); 48 hours; KPT-330 0.1-1.0 μM, CS 1-3 mM, single agent or combination. Here is the method: as §1, §2, §3
Another series concerns OCI-Ly19 cells. The series can be described thus: Cell viability, Annexin V/PI assay. As to conditions: OCI-Ly19 (DLBCL); 48 hours; KPT-330 0.1-1.0 μM, CS 1-3 mM, single agent or combination. Here is the method: as §1, §2, §3
The test system of a further series is RPMI (MM cell line). The series can be described thus: Cell viability, Annexin V/PI assay. As to conditions: 48 hours, KPT-330 0.1-1.0 μM, CS 1-3 mM, single agent or combination. Here is the method: as §1, §2, §3
The test system of a further series is Mino cells. The series can be described thus: Cell viability, Annexin V/PI assay. As to conditions: Mino (MCL); 48 hours; KPT-330 0.1-1.0 μM, CS 1-3 mM, single agent or combination. Here is the method:
as §1, §2, §3

The subject of another series is Karpas-299 cells. Description: Cell viability, Annexin V/PI assay. The following applies: Karpas-299 (TCL); 48 hours; KPT-330 0.1-1.0 μM, CS 1-3 mM, single agent or combination. How it is done:
as §1, §2, §3

In a further series the test system is FuJi cells. Description: Cell viability, Annexin V/PI assay. As to conditions: FuJi (Sarcoma); 48 hours; KPT-330 0.1-1.0 μM, CS 1-3 mM, single agent or combination. Here is the method:
as §1, §2, §3

The subject of the next series is CRL-1873 (RS4-11 cells). The series can be described thus: Cell viability, Annexin V/PI assay. The following applies: CRL-1873 (ALL); 48 hours; KPT-330 0.1-1.0 μM, CS 1-3 mM, single agent or combination. Here is the method:
as §1, §2, §3

The next series has as its system OPM2 cells. Description: Cell viability, Annexin V/PI assay. As to conditions: OPM2 (MM); 48 hours; KPT-330 0.1-1.0 μM, CS 1-3 mM, single agent or combination. How it is done:
as §1, §2, §3

The subject of the next series is SW872 cells. Description: Cell viability, Annexin V/PI assay. As to conditions: SW872 (Sarcoma); 48 hours; KPT-330 0.1-1.0 μM, CS 1-3 mM, single agent or combination. How it is done:
as §1, §2, §3

A further series deals with U266 cells. The series can be described thus: Cell viability, Annexin V/PI assay. The following applies: U266 (MM); 48 hours; KPT-330 0.1-1.0 μM, CS 1-3 mM, single agent or combination. How it is done:
as §1, §2, §3

Another series concerns KMS2 cells. The series can be described thus: Cell viability, Annexin V/PI assay. The following applies: KMS2 (MM); 48 hours; KPT-330 0.1-1.0 μM, CS 1-3 mM, single agent or combination. How it is done: as §1, §2, §3
For another series, the system named is Xg1 cells. The series can be described thus: Cell viability, Annexin V/PI assay. The following applies: Xg1 (MM); 48 hours; KPT-330 0.1-1.0 μM, CS 1-3 mM, single agent or combination. How it is done: as §1, §2, §3
The next series has as its system SR-786 cells. The series can be described thus: Cell viability, Annexin V/PI assay. The following applies: SR-786 (TCL); 48 hours; KPT-330 0.1-1.0 μM, CS 1-3 mM, single agent or combination. How it is done: as §1, §2, §3
A further series relates to H1048 cells. The series can be described thus: Cell viability, Annexin V/PI assay. As to conditions: H1048 (Small-cell lung cancer); 48 hours; KPT-330 0.1-1.0 μM, CS 1-3 mM, single agent or combination. How it is done:
as §1, §2, §3

The next series relates to A549 cells. The series can be described thus: Cell viability, Annexin V/PI assay. The following applies: A549 (Non-small cell lung cancer); 48 hours; KPT-330 0.1-1.0 μM, CS 1-3 mM, single agent or combination. How it is done: as §1, §2, §3
A further series deals with BT-474 cells. Description: Cell viability, Annexin V/PI assay. As to conditions: BT-474 (Breast cancer); 48 hours; KPT-330 0.1-1.0 μM, CS 1-3 mM, single agent or combination.
For a further series, the system named is Hs 578T cells. Description: Cell viability, Annexin V/PI assay. As to conditions: Hs 578T (Breast cancer); 48 hours; KPT-330 0.1-1.0 μM, CS 1-3 mM, single agent or combination.
A further series relates to JeKo-1 cells. Description: Cell cycle analysis (PI staining, flow cytometry). As to conditions: unsynchronized JeKo-1 cells. (A flow cytometer gives signals particle by particle.)
The subject of another series is MCF7 cells. The series can be described thus: Cell viability, Annexin V/PI assay. As to conditions: MCF7 (Breast cancer); 48 hours; KPT-330 0.1-1.0 μM, CS 1-3 mM, single agent or combination.

Procedure for BT-474 cells: (§4) KPT-330 purchased from Selleckchem (cat no: S7252) was dissolved in DMSO while CS (Santa Cruz, Calif.S 2016-36-6), sodium salicylate (Sigma-Aldrich, cat no: S3007), acetyl salicylate (Sigma-Aldrich, cat no: CAS 50-78-2) was diluted in PBS. […] The concentration range of KPT-330 was 0.05-1.0 μM while CS was 1-3 mM were used for ex vivo treatment and incubation time ranged from 24 hours to 72 hours.
Procedure for Hs 578T cells: as §4
Procedure for JeKo-1 cells: For cell cycle analysis, Jeko-1 cell line was intubated with CRM 1 inhibitors (concentrations ranging from 0.1-0.5p M) and salicylates (concentration at 3 mM) and Ly-1 cell line was intubated with CRM 1 inhibitors (concentrations ranging from 0.1-2.0 μM) and salicylates (concentration at 0.5-5 mM) for 24 and 48 hours and then fixed with 95% cold ethanol and kept at 4 C° for 24 h and subsequently underwent cell cycle analysis after PI staining and analysis was performed using BD FACS caliber flow cytometer (BD Biosciences) and FlowJo software (Tree Star).
Cell Cycle Analysis Following incubation, cells were fixed with 70% cold ethanol and kept at 4 C° for 24 hours, followed by PI staining. Cell cycle analysis was done by using a BD FACS Caliber flow cytometer (BD Biosciences) and analyzed using FlowJo® Software.
A double thymine block was used to synchronize cells at G1 phase of the cell cycle. JeKo-1 cells were cultured in thymidine at 2 mM in RPMI for 9 hours. Subsequently, cells were washed and cultured in RPMI media (RPMI) without additional thymidine for 12 hours and the second block of cell cycle with thymidine (2 mM) was carried out for an additional 9 hours with in RPMI. Following the double thymidine block, cells were released by re-culturing cells in normal RPMI without additional thymidine. The viability of cells at the time of release was >90%. […]
Procedure for MCF7 cells: as §4

As for `C[N+](C)(C)CCO.O=C([O-])c1ccccc1O` [CS, choline salicylate], the “% viability normalized for respective controls” value (“% viability normalized” below) was 105% in the series on H460 cells; 90% in the series with HCC827 cells; 88% with OCI-Ly19 cells; 85% in the series on RPMI (MM cell line); 86% in the series with Mino cells; 80% in the series with Karpas-299 cells. The “% viability normalized” value in the series with FuJi cells is recorded as 85%; in the series with CRL-1873 (RS4-11 cells) it was 91.5%; in the series on OPM2 cells, 98%; with SW872 cells, 88%; with U266 cells, 93%; in the series with KMS2 cells, 83%. Moreover, the “% viability normalized” value in the series on Xg1 cells amounted to 95%; in the series on SR-786 cells, 100%; in the series with H1048 cells, 92%; in the series on A549 cells, 94%; in the series on BT-474 cells it was 110%; in the series on Hs 578T cells, 87%. Also, in the series on MCF7 cells, the “% viability normalized” value was found to be 87%. Besides, the “fraction of cells in the G2/M phase” value with JeKo-1 cells is 11%.
Consider `O=C(/C=C\n1cnc(-c2cc(C(F)(F)F)cc(C(F)(F)F)c2)n1)NNc1cnccn1` [KPT-330, (Z)-3-[3-[3,5-bis (trifluoromethyl)phenyl]-1,2,4-triazol-1-yl]-N′-pyrazin-2-ylprop-2-enehydrazide], for which the “% viability normalized” value came out at 93% in the series on H460 cells; 78% in the series on HCC827 cells; 57% in the series on OCI-Ly19 cells; 87.5% in the series on RPMI (MM cell line); 89% in the series with Mino cells; 88% in the series with Karpas-299 cells. Also, the “% viability normalized” value in the series with FuJi cells is on record as 93%; in the series on CRL-1873 (RS4-11 cells), 79%; with OPM2 cells, 82%; with SW872 cells, 82%; in the series on U266 cells, 75%; with KMS2 cells, 79%. For the same compound, the “% viability normalized” value in the series on Xg1 cells was 76%; in the series on SR-786 cells, 91%; in the series on H1048 cells, 81%; in the series on A549 cells, 101%; with BT-474 cells it was 73%; with Hs 578T cells it was 73%. For the same compound, in the series with MCF7 cells, the “% viability normalized” value stood at 98%. For the same compound, in the series with JeKo-1 cells, the “fraction of cells in the G2/M phase” value turned out to be 15%.
